Source: US20160304957A1, “TREATMENT AND MODULATION OF GENE EXPRESSION AND SKIN AGING” (DSM NUTRITIONAL PRODUCTS LTD., priority 2006, published 2016)

System: HaCaT human keratinocytes
Assay: Affymetrix GeneChip microarray, transcriptional response to β-carotene and/or UVA
Type: cell-based
Experimental: The cell culture experiments were carried out as described. Briefly, a subclone of passage 65 HaCaT keratinocytes, selected for differentiation capacity, was used at passages 16 to 23 after subcloning. 2×10^5 cells were seeded per 60 millimeter dish. Starting the following day, the cells were pretreated for 2 days with β-carotene at 1.5 μM, a typical concentration in human plasma after moderate dietary supplementation)
β-carotene-containing medium was prepared as follows. Fresh all-E-β-carotene (DSM Nutritional Products, Kaiseraugst, Switzerland) stock solution in THF (containing 0.025% BHT; Fluka Chemie A G, Switzerland) was diluted 1:2 with ethanol and added to cell culture medium to a final concentration of 1.5 μM β-carotene. The solvent concentration in the medium was 0.5% for all treatments. β-carotene-containing medium was prepared fresh for the daily medium changes.
On day 3 of the experiment, the cells were irradiated with a Hönle sun lamp Sol 500 (270 kJ/m^2; Dr. Hönle, Germany).
Five independent, factorially designed cell irradiation experiments were analyzed by microarray hybridization. For each experiment, one chip was hybridized per treatment condition. GeneChip® analysis was done as described in [132], which is incorporated by reference, as if recited in full herein. Gene regulation by β-carotene and/or UVA was calculated relative to placebo.
Changes in gene expression were included in further analysis only if the change factor was […], and if unpaired t-tests yielded p values≦0.05. Upregulations by a […] are labeled bold, downregulations by a change factor of […] are labeled bold italics. (Table 1) To identify the pathways affected by the treatments functional information on the genes was retrieved from public literature databases.

CC1=C(/C=C/C(C)=C/C=C/C(C)=C/C=C/C=C(C)/C=C/C=C(C)/C=C/C2=C(C)CCCC2(C)C)C(C)(C)CCC1 [β-carotene, All-E-β-carotene]
NCF2; p67-phox; neutrophil oxidase factor (M32011) change factor (UVA and β-carotene 1.5 μM): −0.16
NF-κB subunit (S78771) change factor (UVA and β-carotene 1.5 μM): 0.56
NF-κB subunit (X61498) change factor (UVA and β-carotene 1.5 μM): 0.7
NFκB; p50 (S76638) change factor (UVA and β-carotene 1.5 μM): 0.55
NOL1; p120 nucleolar antigen (X55504) change factor (UVA and β-carotene 1.5 μM): 0.94
NOTCH3 (U97669) change factor (UVA and β-carotene 1.5 μM): −1.37
NOV (X96584) change factor (UVA and β-carotene 1.5 μM): 0.72
NOXA (D90070) change factor (UVA and β-carotene 1.5 μM): 0.74
NRF1 (L24123) change factor (UVA and β-carotene 1.5 μM): −0.65
NRF2, subunit beta 1 (U13045) change factor (UVA and β-carotene 1.5 μM): −0.11
OSR1; oxidative-stress responsive 1 (AB017642) change factor (UVA and β-carotene 1.5 μM): 0.59
PAR-1; thrombin receptor (M62424) change factor (UVA and β-carotene 1.5 μM): −0.05
PAR-2; proteinase activated receptor-2 (U34038) change factor (UVA and β-carotene 1.5 μM): 1.91
PAR-2; proteinase activated receptor-2 (U34038, second entry) change factor (UVA and β-carotene 1.5 μM): 1.34
PAR-2; proteinase activated receptor-2 (U67058) change factor (UVA and β-carotene 1.5 μM): 3.32
PAR-4; protease-activated receptor 4 (AF055917) change factor (UVA and β-carotene 1.5 μM): −0.57
RAIDD; death adaptor molecule (U79115) change factor (UVA and β-carotene 1.5 μM): −0.66
RB1 (L49229) change factor (UVA and β-carotene 1.5 μM): −1.13
RB2/p130 (X74594) change factor (UVA and β-carotene 1.5 μM): −0.85
RETSDR1; retinal short-chain dehydrogenase/reductase (AF061741) change factor (UVA and β-carotene 1.5 μM): −0.06
RPA; replication protein A 14 kda subunit (rpa) (L07493) change factor (UVA and β-carotene 1.5 μM): −0.52
RXRα (U66306) change factor (UVA and β-carotene 1.5 μM): −0.61
RXRα (X52773) change factor (UVA and β-carotene 1.5 μM): −0.57
Requiem (AF001433) change factor (UVA and β-carotene 1.5 μM): 0.32
SMAD 1 (U59423) change factor (UVA and β-carotene 1.5 μM): −0.57
SMAD3 (U68019) change factor (UVA and β-carotene 1.5 μM): 0.01
SMAD3 (U68019, second entry) change factor (UVA and β-carotene 1.5 μM): −0.09
SMAD4 (U44378) change factor (UVA and β-carotene 1.5 μM): −0.67
SMAD5 (U59913) change factor (UVA and β-carotene 1.5 μM): −0.84
SMAD6 (AF035528) change factor (UVA and β-carotene 1.5 μM): −24.2
SMAD7 (AF010193) change factor (UVA and β-carotene 1.5 μM): −0.63
SMRT (U37146) change factor (UVA and β-carotene 1.5 μM): −1.22
STK15; BTAK (AF011468) change factor (UVA and β-carotene 1.5 μM): −1.85
TDAG51; PQ-rich protein; PHLDA1 (Z50194) change factor (UVA and β-carotene 1.5 μM): 6.19
TGFβ; transforming growth factor β (X02812) change factor (UVA and β-carotene 1.5 μM): 0.46
TIAR; nucleolysin tiar (M96954) change factor (UVA and β-carotene 1.5 μM): −0.08
TIEG, EGRα (AF050110) change factor (UVA and β-carotene 1.5 μM): −0.11
TLR3; toll-like receptor 3 (U88879) change factor (UVA and β-carotene 1.5 μM): −0.91
TOP2; topoisomerase II (J04088) change factor (UVA and β-carotene 1.5 μM): −0.86
TRADD; TNF receptor-1 associated protein (L41690) change factor (UVA and β-carotene 1.5 μM): −0.85
TRAIL; TNF-related apoptosis inducing ligand (U37518) change factor (UVA and β-carotene 1.5 μM): −2.66
TRIP14; ‘2-5’ oligoadenylate synthetase (AJ225089) change factor (UVA and β-carotene 1.5 μM): 0.67
TRIP (U77845) change factor (UVA and β-carotene 1.5 μM): −1.35
TSSC3 (AF035444) change factor (UVA and β-carotene 1.5 μM): 0.7
TSSC3/IPL (AF001294) change factor (UVA and β-carotene 1.5 μM): 1.02
VEGF (AF022375) change factor (UVA and β-carotene 1.5 μM): 0.78
VEGF (AF024710) change factor (UVA and β-carotene 1.5 μM): 1.86
VEGF (M63978) change factor (UVA and β-carotene 1.5 μM): 1.09
VEGFR2; VEGF receptor 2; KDR; FLK-1kdr/flk-1 (AF035121) change factor (UVA and β-carotene 1.5 μM): −0.28
WEE1 (X62048) change factor (UVA and β-carotene 1.5 μM): 0.05
WNT5A (I20861) change factor (UVA and β-carotene 1.5 μM): −2.22
WNT5A (I20861, second entry) change factor (UVA and β-carotene 1.5 μM): −3.34
XRCC4 (U40622) change factor (UVA and β-carotene 1.5 μM): −0.01
bFGF; basic fibroblast growth factor; FGF2 (M27968) change factor (UVA and β-carotene 1.5 μM): 0.82
bilirubin udp-glucuronosyltransferase isozyme 2 (M57951) change factor (UVA and β-carotene 1.5 μM): −0.66
bullous pemphigoid autoantigen bp180 (M91669) change factor (UVA and β-carotene 1.5 μM): −0.57
c-myc (V00568) change factor (UVA and β-carotene 1.5 μM): 3.22
c-myc (V00568, second entry) change factor (UVA and β-carotene 1.5 μM): 2.45
c-myc binding protein (mbp-1) (M55914) change factor (UVA and β-carotene 1.5 μM): 0.54
caspase 2, ICH-1S (U13022) change factor (UVA and β-carotene 1.5 μM): −0.62
caspase 7 (U67319) change factor (UVA and β-carotene 1.5 μM): 0.31
ceruloplasmin (ferroxidase) (M13699) change factor (UVA and β-carotene 1.5 μM): 1
collagen type IV, α-2 (COL4A2) (X05610) change factor (UVA and β-carotene 1.5 μM): −0.98
collagen type IV, α-5 (COL4A5) (M58526) change factor (UVA and β-carotene 1.5 μM): −1.16
collagen type IV, α-6 (COL4A6) (D21337) change factor (UVA and β-carotene 1.5 μM): −0.71
collagen type VII, α-1 (COL7A1) (L02870) change factor (UVA and β-carotene 1.5 μM): −0.83
connexin 31 (AF099730) change factor (UVA and β-carotene 1.5 μM): 2.3
connexin 45 (U03493) change factor (UVA and β-carotene 1.5 μM): 0.26
coproporphyrinogen oxidase (D16611) change factor (UVA and β-carotene 1.5 μM): −0.7
cyclin E2 (AF091433) change factor (UVA and β-carotene 1.5 μM): 0.26
cyclin E (M73812) change factor (UVA and β-carotene 1.5 μM): 1.75
desmocollin type 4 (D17427) change factor (UVA and β-carotene 1.5 μM): −1.71
ferritin heavy chain (L20941) change factor (UVA and β-carotene 1.5 μM): 0.59
frizzled-2 (I37882) change factor (UVA and β-carotene 1.5 μM): −1.38
frizzled-6 (AB012911) change factor (UVA and β-carotene 1.5 μM): −1.16
haemochromatosis protein (hla-h) (U60319) change factor (UVA and β-carotene 1.5 μM): −0.61
hsp40; heat shock protein 40 (U40992) change factor (UVA and β-carotene 1.5 μM): −0.07
integrin α6 (X53586) change factor (UVA and β-carotene 1.5 μM): −0.76
integrin α6b (S66213) change factor (UVA and β-carotene 1.5 μM): −0.46
integrin α6b (S66213, second entry) change factor (UVA and β-carotene 1.5 μM): −0.73
jagged2 (jag2) (AF029778) change factor (UVA and β-carotene 1.5 μM): −0.67
keratin 2e (KRT2E); Keratin 2A (AF019084) change factor (UVA and β-carotene 1.5 μM): −0.69
keratin 5 (M21389) change factor (UVA and β-carotene 1.5 μM): 0.81
keratin 15 (J00124) change factor (UVA and β-carotene 1.5 μM): 0.96
keratin 16 (M28439) change factor (UVA and β-carotene 1.5 μM): −0.38
keratin 17 (Z19574) change factor (UVA and β-carotene 1.5 μM): 0.6
mKI67a mrna (long type) for antigen of monoclonal antibody KI-67 (X65550) change factor (UVA and β-carotene 1.5 μM): −0.87
mKI67a mrna (long type) for antigen of monoclonal antibody KI-67 (X65550, second entry) change factor (UVA and β-carotene 1.5 μM): −1.59
ornithine decarboxylase (M33764) change factor (UVA and β-carotene 1.5 μM): 0.57
ornithine decarboxylase (X16277) change factor (UVA and β-carotene 1.5 μM): 0.37
p21; wild-type p53 activated fragment-1 (WAF1) (U03106) change factor (UVA and β-carotene 1.5 μM): 0.21
p33; ING1b (AB024401) change factor (UVA and β-carotene 1.5 μM): 0.64
p160ROCK (U43195) change factor (UVA and β-carotene 1.5 μM): −0.55
protoporphyrinogen oxidase (D38537) change factor (UVA and β-carotene 1.5 μM): −0.54
rTS α (X67098) change factor (UVA and β-carotene 1.5 μM): −0.47
serpinB1 (M93056) change factor (UVA and β-carotene 1.5 μM): 0.57
stimulator of Fe transport (AF020761) change factor (UVA and β-carotene 1.5 μM): 1.03
thioredoxin reductase (X91247) change factor (UVA and β-carotene 1.5 μM): 1.48
thymidylate synthase (X02308) change factor (UVA and β-carotene 1.5 μM): −0.56
transferrin receptor (X01060) change factor (UVA and β-carotene 1.5 μM): 0.91
uroporphyrinogen III synthase (J03824) change factor (UVA and β-carotene 1.5 μM): −0.61
α topoisomerase truncated-form (L47276) change factor (UVA and β-carotene 1.5 μM): −0.81
reduction of UVA induction of MMP-10 (β-carotene 1.5 μM, 5 hours after UVA): 30%
